Values after ≈ are worked out from the molar mass of the structure shown.
Test system: Staphylococcus aureus
Assay: Antimicrobial activity against methicillin-susceptible Staphylococcus aureus NRS70 after 18 to 20 hrs by microbroth dilution method
Format: functional
Conditions: not given

| Structure (SMILES) | MIC [µg/mL] |
| --- | --- |
| N[C@@H](C(=O)N[C@@H]1C(=O)N2C(C(=O)O)=C(Cl)CS[C@H]12)c1ccccc1 [CEFACLOR ANHYDROUS] | 100 (≈ 272 µM) |

Test system: Escherichia coli
Assay: Antimicrobial activity against Escherichia coli ATCC 25922 after 18 to 20 hrs by microbroth dilution method
Format: functional
Conditions: not given

| Structure (SMILES) | MIC [µg/mL] |
| --- | --- |
| N[C@@H](C(=O)N[C@@H]1C(=O)N2C(C(=O)O)=C(Cl)CS[C@H]12)c1ccccc1 [CEFACLOR ANHYDROUS] | 12.5 (≈ 34 µM) |

Test system: Bacillus anthracis
Assay: Antimicrobial activity against Bacillus anthracis Sterne 34F2 after 18 to 20 hrs by microbroth dilution method
Format: functional
Conditions: not given

| Structure (SMILES) | MIC [µg/mL] |
| --- | --- |
| N[C@@H](C(=O)N[C@@H]1C(=O)N2C(C(=O)O)=C(Cl)CS[C@H]12)c1ccccc1 [CEFACLOR ANHYDROUS] | 0.39 (≈ 1.06 µM) |

Test system: Stenotrophomonas maltophilia
Assay: Antimicrobial activity against Stenotrophomonas maltophilia ATCC 700475 after 18 to 20 hrs by microbroth dilution method
Format: functional
Conditions: not given

| Structure (SMILES) | MIC [µg/mL] |
| --- | --- |
| N[C@@H](C(=O)N[C@@H]1C(=O)N2C(C(=O)O)=C(Cl)CS[C@H]12)c1ccccc1 [CEFACLOR ANHYDROUS] | > 200 |

Test system: Streptococcus pneumoniae
Assay: Antimicrobial activity against Streptococcus pneumoniae R6 after 18 to 20 hrs by microbroth dilution method
Format: functional
Conditions: not given

| Structure (SMILES) | MIC [µg/mL] |
| --- | --- |
| N[C@@H](C(=O)N[C@@H]1C(=O)N2C(C(=O)O)=C(Cl)CS[C@H]12)c1ccccc1 [CEFACLOR ANHYDROUS] | 0.78 (≈ 2.12 µM) |

Test system: Escherichia coli
Assay: Antimicrobial activity against Escherichia coli BW25113 after 18 to 20 hrs by microbroth dilution method
Format: functional
Conditions: not given

| Structure (SMILES) | MIC [µg/mL] |
| --- | --- |
| N[C@@H](C(=O)N[C@@H]1C(=O)N2C(C(=O)O)=C(Cl)CS[C@H]12)c1ccccc1 [CEFACLOR ANHYDROUS] | 6.25 (≈ 17 µM) |

Test system: Escherichia coli
Assay: Antimicrobial activity against Escherichia coli isolate SJ 5 after 18 to 20 hrs by microbroth dilution method
Format: functional
Conditions: not given

| Structure (SMILES) | MIC [µg/mL] |
| --- | --- |
| N[C@@H](C(=O)N[C@@H]1C(=O)N2C(C(=O)O)=C(Cl)CS[C@H]12)c1ccccc1 [CEFACLOR ANHYDROUS] | 50 (≈ 136 µM) |

Test system: Escherichia coli
Assay: Antimicrobial activity against Escherichia coli isolate SJ 1 after 18 to 20 hrs by microbroth dilution method
Format: functional
Conditions: not given

| Structure (SMILES) | MIC [µg/mL] |
| --- | --- |
| N[C@@H](C(=O)N[C@@H]1C(=O)N2C(C(=O)O)=C(Cl)CS[C@H]12)c1ccccc1 [CEFACLOR ANHYDROUS] | 50 (≈ 136 µM) |

Test system: Escherichia coli
Assay: Antimicrobial activity against Escherichia coli ATCC 35218 expressing TEM-1 beta lactamases after 18 to 20 hrs by microbroth dilution method
Format: functional
Conditions: not given

| Structure (SMILES) | MIC [µg/mL] |
| --- | --- |
| N[C@@H](C(=O)N[C@@H]1C(=O)N2C(C(=O)O)=C(Cl)CS[C@H]12)c1ccccc1 [CEFACLOR ANHYDROUS] | 50 (≈ 136 µM) |

Test system: Klebsiella pneumoniae
Assay: Antimicrobial activity against Klebsiella pneumoniae isolate SJ 1 after 18 to 20 hrs by microbroth dilution method
Format: functional
Conditions: not given

| Structure (SMILES) | MIC [µg/mL] |
| --- | --- |
| N[C@@H](C(=O)N[C@@H]1C(=O)N2C(C(=O)O)=C(Cl)CS[C@H]12)c1ccccc1 [CEFACLOR ANHYDROUS] | 200 (≈ 544 µM) |

Test system: Pseudomonas aeruginosa
Assay: Antimicrobial activity against Pseudomonas aeruginosa PAO1 after 18 to 20 hrs by microbroth dilution method
Format: functional
Conditions: not given

| Structure (SMILES) | MIC [µg/mL] |
| --- | --- |
| N[C@@H](C(=O)N[C@@H]1C(=O)N2C(C(=O)O)=C(Cl)CS[C@H]12)c1ccccc1 [CEFACLOR ANHYDROUS] | > 200 |

Test system: Escherichia coli
Assay: Antimicrobial activity against Escherichia coli isolate SJ 4 after 18 to 20 hrs by microbroth dilution method
Format: functional
Conditions: not given

| Structure (SMILES) | MIC [µg/mL] |
| --- | --- |
| N[C@@H](C(=O)N[C@@H]1C(=O)N2C(C(=O)O)=C(Cl)CS[C@H]12)c1ccccc1 [CEFACLOR ANHYDROUS] | > 200 |

Test system: Enterobacter cloacae
Assay: Antimicrobial activity against Enterobacter cloacae ATCC 13047 after 18 to 20 hrs by microbroth dilution method
Format: functional
Conditions: subsp. cloacae ATCC 13047

| Structure (SMILES) | MIC [µg/mL] |
| --- | --- |
| N[C@@H](C(=O)N[C@@H]1C(=O)N2C(C(=O)O)=C(Cl)CS[C@H]12)c1ccccc1 [CEFACLOR ANHYDROUS] | > 200 |

Test system: Proteus mirabilis
Assay: Antimicrobial activity against Proteus mirabilis ATCC 25933 after 18 to 20 hrs by microbroth dilution method
Format: functional
Conditions: not given

| Structure (SMILES) | MIC [µg/mL] |
| --- | --- |
| N[C@@H](C(=O)N[C@@H]1C(=O)N2C(C(=O)O)=C(Cl)CS[C@H]12)c1ccccc1 [CEFACLOR ANHYDROUS] | 3.13 (≈ 8.51 µM) |

Test system: Klebsiella pneumoniae
Assay: Antimicrobial activity against Klebsiella pneumoniae isolate SJ 3 after 18 to 20 hrs by microbroth dilution method
Format: functional
Conditions: not given

| Structure (SMILES) | MIC [µg/mL] |
| --- | --- |
| N[C@@H](C(=O)N[C@@H]1C(=O)N2C(C(=O)O)=C(Cl)CS[C@H]12)c1ccccc1 [CEFACLOR ANHYDROUS] | 1.56 (≈ 4.24 µM) |

Test system: Klebsiella pneumoniae
Assay: Antimicrobial activity against Klebsiella pneumoniae isolate SJ 2 after 18 to 20 hrs by microbroth dilution method
Format: functional
Conditions: not given

| Structure (SMILES) | MIC [µg/mL] |
| --- | --- |
| N[C@@H](C(=O)N[C@@H]1C(=O)N2C(C(=O)O)=C(Cl)CS[C@H]12)c1ccccc1 [CEFACLOR ANHYDROUS] | 1.56 (≈ 4.24 µM) |

Test system: Escherichia coli
Assay: Antimicrobial activity against Escherichia coli isolate SJ 2 after 18 to 20 hrs by microbroth dilution method
Format: functional
Conditions: not given

| Structure (SMILES) | MIC [µg/mL] |
| --- | --- |
| N[C@@H](C(=O)N[C@@H]1C(=O)N2C(C(=O)O)=C(Cl)CS[C@H]12)c1ccccc1 [CEFACLOR ANHYDROUS] | 200 (≈ 544 µM) |

Test system: Staphylococcus aureus
Assay: Antimicrobial activity against methicillin-susceptible Staphylococcus aureus ATCC 29213 after 18 to 20 hrs by microbroth dilution method
Format: functional
Conditions: not given

| Structure (SMILES) | MIC [µg/mL] |
| --- | --- |
| N[C@@H](C(=O)N[C@@H]1C(=O)N2C(C(=O)O)=C(Cl)CS[C@H]12)c1ccccc1 [CEFACLOR ANHYDROUS] | 1.56 (≈ 4.24 µM) |

Test system: Bacillus subtilis
Assay: Antimicrobial activity against Bacillus subtilis ATCC 23857 after 18 to 20 hrs by microbroth dilution method
Format: functional
Conditions: not given

| Structure (SMILES) | MIC [µg/mL] |
| --- | --- |
| N[C@@H](C(=O)N[C@@H]1C(=O)N2C(C(=O)O)=C(Cl)CS[C@H]12)c1ccccc1 [CEFACLOR ANHYDROUS] | < 0.2 |

Test system: Klebsiella pneumoniae
Assay: Antimicrobial activity against Klebsiella pneumoniae ATCC 33495 after 18 to 20 hrs by microbroth dilution method
Format: functional
Conditions: not given

| Structure (SMILES) | MIC [µg/mL] |
| --- | --- |
| N[C@@H](C(=O)N[C@@H]1C(=O)N2C(C(=O)O)=C(Cl)CS[C@H]12)c1ccccc1 [CEFACLOR ANHYDROUS] | 1.56 (≈ 4.24 µM) |

Test system: Escherichia coli
Assay: Antimicrobial activity against Escherichia coli isolate SJ 3 after 18 to 20 hrs by microbroth dilution method
Format: functional
Conditions: not given

| Structure (SMILES) | MIC [µg/mL] |
| --- | --- |
| N[C@@H](C(=O)N[C@@H]1C(=O)N2C(C(=O)O)=C(Cl)CS[C@H]12)c1ccccc1 [CEFACLOR ANHYDROUS] | 12.5 (≈ 34 µM) |

Test system: Streptococcus pyogenes
Assay: Antimicrobial activity against Streptococcus pyogenes ATCC 700294 after 18 to 20 hrs by microbroth dilution method
Format: functional
Conditions: M1 GAS

| Structure (SMILES) | MIC [µg/mL] |
| --- | --- |
| N[C@@H](C(=O)N[C@@H]1C(=O)N2C(C(=O)O)=C(Cl)CS[C@H]12)c1ccccc1 [CEFACLOR ANHYDROUS] | 0.39 (≈ 1.06 µM) |

Test system: Enterococcus faecalis
Assay: Antimicrobial activity against Enterococcus faecalis ATCC 33186 after 18 to 20 hrs by microbroth dilution method
Format: functional
Conditions: not given

| Structure (SMILES) | MIC [µg/mL] |
| --- | --- |
| N[C@@H](C(=O)N[C@@H]1C(=O)N2C(C(=O)O)=C(Cl)CS[C@H]12)c1ccccc1 [CEFACLOR ANHYDROUS] | 25 (≈ 68 µM) |

Test system: Klebsiella pneumoniae
Assay: Antimicrobial activity against Klebsiella pneumoniae isolate SJ 5 after 18 to 20 hrs by microbroth dilution method
Format: functional
Conditions: not given

| Structure (SMILES) | MIC [µg/mL] |
| --- | --- |
| N[C@@H](C(=O)N[C@@H]1C(=O)N2C(C(=O)O)=C(Cl)CS[C@H]12)c1ccccc1 [CEFACLOR ANHYDROUS] | > 200 |

Test system: Escherichia coli
Assay: Antimicrobial activity against tolC deficient Escherichia coli JW5503-1 after 18 to 20 hrs by microbroth dilution method
Format: functional
Conditions: not given

| Structure (SMILES) | MIC [µg/mL] |
| --- | --- |
| N[C@@H](C(=O)N[C@@H]1C(=O)N2C(C(=O)O)=C(Cl)CS[C@H]12)c1ccccc1 [CEFACLOR ANHYDROUS] | 6.25 (≈ 17 µM) |

Test system: Escherichia coli
Assay: Antimicrobial activity against Escherichia coli isolate SJ 6 after 18 to 20 hrs by microbroth dilution method
Format: functional
Conditions: not given

| Structure (SMILES) | MIC [µg/mL] |
| --- | --- |
| N[C@@H](C(=O)N[C@@H]1C(=O)N2C(C(=O)O)=C(Cl)CS[C@H]12)c1ccccc1 [CEFACLOR ANHYDROUS] | > 200 |

Test system: Klebsiella pneumoniae
Assay: Antimicrobial activity against Klebsiella pneumoniae isolate SJ 4 after 18 to 20 hrs by microbroth dilution method
Format: functional
Conditions: not given

| Structure (SMILES) | MIC [µg/mL] |
| --- | --- |
| N[C@@H](C(=O)N[C@@H]1C(=O)N2C(C(=O)O)=C(Cl)CS[C@H]12)c1ccccc1 [CEFACLOR ANHYDROUS] | 1.56 (≈ 4.24 µM) |

Test system: Bacillus cereus
Assay: Antimicrobial activity against Bacillus cereus ATCC 14579 after 18 to 20 hrs by microbroth dilution method
Format: functional
Conditions: not given

| Structure (SMILES) | MIC [µg/mL] |
| --- | --- |
| N[C@@H](C(=O)N[C@@H]1C(=O)N2C(C(=O)O)=C(Cl)CS[C@H]12)c1ccccc1 [CEFACLOR ANHYDROUS] | > 200 |

Test system: Acinetobacter baumannii
Assay: Antimicrobial activity against Acinetobacter baumannii ATCC 19606 after 18 to 20 hrs by microbroth dilution method
Format: functional
Conditions: ATCC 19606 = CIP 70.34 = JCM 6841

| Structure (SMILES) | MIC [µg/mL] |
| --- | --- |
| N[C@@H](C(=O)N[C@@H]1C(=O)N2C(C(=O)O)=C(Cl)CS[C@H]12)c1ccccc1 [CEFACLOR ANHYDROUS] | 200 (≈ 544 µM) |

— ChEMBL document CHEMBL4229518, “New β-lactam - Tetramic acid hybrids show promising antibacterial activities” (Bioorg Med Chem Lett, 2018)
